According to patent US9497973B2, “Elasmobranch-repelling compounds, methods of use and devices” (priority 2005, dated 2016):
Counter-ions that a name gives are not always drawn.

Legend:
[1] = system: young Lemon Sharks (Negaprion brevirostris); conditions: in vivo; cited from earlier work
[2] = system: blue sharks and great white sharks; conditions: squirted into the mouth; cited from earlier work
sharks [3] = conditions: cited from earlier work
sharks [4] = conditions: in vivo
[5] = system: several species of sharks; conditions: shark pens at Bimini, Bahamas; cited from earlier work
[6] = system: tiger sharks and other fish; conditions: in vivo; cited from earlier work
[7] = room temperature, heat; cited from earlier work
[8] = system: at least four species of sharks; conditions: cited from earlier work

CCCCCCCCCCCCOS(=O)(=O)[O-].[Li+] [LLS]
repelling captive Lemon Sharks, compared with pardaxin [1]: even more effective than pardaxin

CCCCCCCCCCCCOS(=O)(=O)[O-].[Na+] [SLS]
repelling captive Lemon Sharks, compared with pardaxin [1]: even more effective than pardaxin
repellency against blue sharks and great white sharks [2]: effective repellent
effectiveness in surrounding-cloud-mode dispersions (sharks [3]; in vivo): not effective

CCCCCCCCCCCCOS(=O)(=O)O [dodecyl sulfate]
meeting the Navy's potency requirement for a nondirectional surrounding-cloud type repellent (sharks [3]; requirement 100 parts per billion (0.1 ppm or 100 micrograms/Liter)): did not meet

copper acetate
effectiveness as a shark repellent (sharks [4]): ineffective
repelling or inhibiting feeding activities [5]: fails to repel or inhibit the feeding activities
efficacy against tiger sharks and other fish [6]: inefficacy

pardaxin
storage stability [7]: not stable for room temperature storage, and was heat-sensitive
effectiveness relative to the fresh secretion ([8]; freeze-dried form): 30%
time for which sharks were repelled ([8]; laboratory and open sea, at least four species): ≥ 10 h
